# In ChEMBL document CHEMBL1201861, “Genomics of Drug Sensitity in Cancer screening data, Wellcome Trust Sanger Institute”:
# Key:
# Assay in all cases: cells
# Conditions in all cases: Homo sapiens
# COLO-824 = type: functional, cell-based
# Description: SANGER: Inhibition of human COLO-824 cell growth in a cell viability assay.
# CTV-1 = type: functional, cell-based;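 further: growth inhibition of the cell line, read out with a cell viability assay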
# Description: SANGER: Inhibition of human CTV-1 cell growth in a cell viability assay.
# CW-2 = type: functional, cell-based;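 further: growth inhibition of CW-2 cells, read out by a cell viability assay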
# Description: SANGER: Inhibition of human CW-2 cell growth in a cell viability assay.
# D283 Med = type: functional, cell-based
# Description: SANGER: Inhibition of human D-283MED cell growth in a cell viability assay.
# DB = type: functional, cell-based
# Description: SANGER: Inhibition of human DB cell growth in a cell viability assay.
# DEL = type: functional, cell-based;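 further: growth inhibition of the human DEL cell line, read out with a cell viability assay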
# Description: SANGER: Inhibition of human DEL cell growth in a cell viability assay.
# GAK = type: functional, cell-based;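 further: cell growth inhibition read out by a cell viability assay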
# Description: SANGER: Inhibition of human GAK cell growth in a cell viability assay.
# GI-ME-N = type: functional, cell-based;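 further: growth inhibition of human GI-ME-N cells, read out with a cell viability assay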
# Description: SANGER: Inhibition of human GI-ME-N cell growth in a cell viability assay.
# HEL = type: functional, cell-based;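 further: growth inhibition of HEL cells, read out with a cell viability assay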
# Description: SANGER: Inhibition of human HEL cell growth in a cell viability assay.
# HH = type: functional, cell-based
# Description: SANGER: Inhibition of human HH cell growth in a cell viability assay.
# KINGS-1 = type: functional, cell-based;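 further: cell viability assay measuring suppression of KINGS-1 cell growth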
# Description: SANGER: Inhibition of human KINGS-1 cell growth in a cell viability assay.
# KLE = type: functional, cell-based;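 further: growth inhibition of human KLE cells, read out with a cell viability assay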
# Description: SANGER: Inhibition of human KLE cell growth in a cell viability assay.
# KNS-42 = type: functional, cell-based;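 further: growth inhibition of KNS-42 cells, read out with a cell viability assay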
# Description: SANGER: Inhibition of human KNS-42 cell growth in a cell viability assay.
# KP-N-YS = type: functional, cell-based;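 further: cell viability assay measuring inhibition of cell line growth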
# Description: SANGER: Inhibition of human KP-N-YS cell growth in a cell viability assay.
# KU812 cell line = type: functional, cell-based;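 further: growth inhibition of KU812 cells, read out with a cell viability assay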
# Description: SANGER: Inhibition of human KU812 cell growth in a cell viability assay.
# KURAMOCHI = type: functional, cell-based;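 further: growth inhibition of KURAMOCHI cells, read out with a cell viability assay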
# Description: SANGER: Inhibition of human KURAMOCHI cell growth in a cell viability assay.
# LC-2-ad = type: functional, cell-based;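 further: growth inhibition of human LC-2-ad cells, read out with a cell viability assay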
# Description: SANGER: Inhibition of human LC-2-ad cell growth in a cell viability assay.
# LOX IMVI = type: functional, cell-based
# Description: SANGER: Inhibition of human LOXIMVI cell growth in a cell viability assay.
# LU-139 = type: functional, cell-based
# Description: SANGER: Inhibition of human LU-139 cell growth in a cell viability assay.
# Lu-65 = type: functional, cell-based;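 further: growth inhibition of Lu-65 cancer cells, read out by a cell viability assay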
# Description: SANGER: Inhibition of human LU-65 cell growth in a cell viability assay.
# MEG-01 = type: functional, cell-based;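 further: growth inhibition of MEG-01 cells, read out by a cell viability assay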
# Description: SANGER: Inhibition of human MEG-01 cell growth in a cell viability assay.
# MFM-223 = type: functional, cell-based
# Description: SANGER: Inhibition of human MFM-223 cell growth in a cell viability assay.
# MN-60 = type: functional, cell-based;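 further: growth inhibition of the MN-60 cell line, determined with a cell viability assay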
# Description: SANGER: Inhibition of human MN-60 cell growth in a cell viability assay.
# MPP-89 = type: functional, cell-based;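 further: growth inhibition of human MPP-89 cells, read out with a cell viability assay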
# Description: SANGER: Inhibition of human MPP-89 cell growth in a cell viability assay.
# MS-1 = type: functional, cell-based;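 further: growth inhibition of MS-1 cells, read out by cell viability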
# Description: SANGER: Inhibition of human MS-1 cell growth in a cell viability assay.
# MSTO-211H = type: functional, cell-based
# Description: SANGER: Inhibition of human MSTO-211H cell growth in a cell viability assay.
# MZ1-PC = type: functional, cell-based;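 further: cell viability assay measuring growth inhibition of human MZ1-PC cells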
# Description: SANGER: Inhibition of human MZ1-PC cell growth in a cell viability assay.
# Mo = type: functional, cell-based
# Description: SANGER: Inhibition of human Mo-T cell growth in a cell viability assay.
# NB10 = type: functional, cell-based;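 further: growth inhibition of NB10 cells, read out by a cell viability assay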
# Description: SANGER: Inhibition of human NB10 cell growth in a cell viability assay.
# NB5 = type: functional, cell-based;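 further: growth inhibition of NB5 cells, read out as cell viability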
# Description: SANGER: Inhibition of human NB5 cell growth in a cell viability assay.
# NCI-H1092 = type: functional, cell-based;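 further: cell growth inhibition measured with a cell viability assay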
# Description: SANGER: Inhibition of human NCI-H1092 cell growth in a cell viability assay.
# NCI-H1770 = type: functional, cell-based;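 further: growth inhibition of NCI-H1770 cells determined with a viability readout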
# Description: SANGER: Inhibition of human NCI-H1770 cell growth in a cell viability assay.
# NCI-H226 = type: functional, cell-based;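 further: cell viability read-out used to gauge growth inhibition of the cells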
# Description: SANGER: Inhibition of human NCI-H226 cell growth in a cell viability assay.
# NCI-H23 = type: functional, cell-based;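 further: cell viability assay measuring growth inhibition of NCI-H23 cells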
# Description: SANGER: Inhibition of human NCI-H23 cell growth in a cell viability assay.
# SNU1 = type: functional, cell-based;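 further: growth inhibition of human NCI-SNU-1 cells, measured with a cell viability assay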
# Description: SANGER: Inhibition of human NCI-SNU-1 cell growth in a cell viability assay.
# NEC8 = type: functional, cell-based;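 further: growth inhibition of human NEC8 cells, read out by a cell viability assay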
# Description: SANGER: Inhibition of human NEC8 cell growth in a cell viability assay.
# NH-12 = type: functional, cell-based;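 further: growth inhibition of NH-12 cells, read out with a cell viability assay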
# Description: SANGER: Inhibition of human NH-12 cell growth in a cell viability assay.
# NOS-1 = type: functional, cell-based;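 further: growth inhibition of the human NOS-1 cell line, read out with a cell viability assay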
# Description: SANGER: Inhibition of human NOS-1 cell growth in a cell viability assay.
# NTERA-2-cl-D1 = type: functional, cell-based;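 further: inhibition of cell growth, measured with a cell viability assay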
# Description: SANGER: Inhibition of human NTERA-S-cl-D1 cell growth in a cell viability assay.
# OCUB-M = type: functional, cell-based;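 further: growth inhibition of the cancer cell line, read out through a cell viability assay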
# Description: SANGER: Inhibition of human OCUB-M cell growth in a cell viability assay.
# RH-1 = type: functional, cell-based;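 further: growth inhibition of human RH-1 cells, read out with a cell viability assay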
# Description: SANGER: Inhibition of human RH-1 cell growth in a cell viability assay.
# SCC-15 = type: functional, cell-based;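 further: growth inhibition of SCC-15 cells, read out with a cell viability assay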
# Description: SANGER: Inhibition of human SCC-15 cell growth in a cell viability assay.
# SNB-75 = type: functional, cell-based;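 further: cell viability assay measuring growth inhibition of human SNB-75 cells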
# Description: SANGER: Inhibition of human SNB75 cell growth in a cell viability assay.
# SW684 = type: functional, cell-based;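 further: growth inhibition of human SW684 cells, measured by a cell viability assay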
# Description: SANGER: Inhibition of human SW684 cell growth in a cell viability assay.
# SW 954 = type: functional, cell-based;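 further: growth inhibition of SW954 human cancer cells, read out as cell viability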
# Description: SANGER: Inhibition of human SW954 cell growth in a cell viability assay.
# SW982 = type: functional, cell-based;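 further: growth inhibition of SW982 cells, read out with a cell viability assay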
# Description: SANGER: Inhibition of human SW982 cell growth in a cell viability assay.
# TE-1 = type: functional, cell-based
# Description: SANGER: Inhibition of human TE-1 cell growth in a cell viability assay.
# 8-MG-BA = type: functional, cell-based;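 further: growth inhibition of 8-MG-BA cells, read out with a cell viability assay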
# Description: SANGER: Inhibition of human 8-MG-BA cell growth in a cell viability assay.
# ALL-PO = type: functional, cell-based;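 further: growth inhibition of ALL-PO cells, read out by a cell viability assay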
# Description: SANGER: Inhibition of human ALL-PO cell growth in a cell viability assay.
# AM-38 = type: functional, cell-based;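 further: growth inhibition of AM-38 cells of human origin, read out by a cell viability assay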
# Description: SANGER: Inhibition of human AM-38 cell growth in a cell viability assay.
# TE-11 = type: functional, cell-based;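 further: growth inhibition of human TE-11 cells, read out by a cell viability assay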
# Description: SANGER: Inhibition of human TE-11 cell growth in a cell viability assay.
# TE-12 = type: functional, cell-based;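 further: growth inhibition of TE-12 cells, read out by a cell viability assay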
# Description: SANGER: Inhibition of human TE-12 cell growth in a cell viability assay.
# TE-9 = type: functional, cell-based;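 further: cell growth inhibition, measured with a cell viability readout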
# Description: SANGER: Inhibition of human TE-9 cell growth in a cell viability assay.
# TK-10 = type: functional, cell-based;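 further: growth inhibition of TK-10 cells, read out in a cell viability assay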
# Description: SANGER: Inhibition of human TK10 cell growth in a cell viability assay.
# U-266 = type: functional, cell-based
# Description: SANGER: Inhibition of human U-266 cell growth in a cell viability assay.
# U-87 MG = type: functional, cell-based, U-87MG ATCC;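 further: growth inhibition of the cells measured with a viability assay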
# Description: SANGER: Inhibition of human U-87-MG cell growth in a cell viability assay.
# UACC-257 = type: functional, cell-based
# Description: SANGER: Inhibition of human UACC-257 cell growth in a cell viability assay.
# no-11 = type: functional, cell-based;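 further: growth inhibition of human NO-11 cells, read out with a cell viability assay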
# Description: SANGER: Inhibition of human no-11 cell growth in a cell viability assay.
# CAS-1 = type: functional, cell-based;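 further: growth inhibition of CAS-1 cells, measured with a cell viability assay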
# Description: SANGER: Inhibition of human CAS-1 cell growth in a cell viability assay.
# CGTH-W-1 = type: functional, cell-based;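 further: growth inhibition of human CGTH-W-1 cells measured by cell viability assay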
# Description: SANGER: Inhibition of human CGTH-W-1 cell growth in a cell viability assay.
# COLO-684 = type: functional, cell-based
# Description: SANGER: Inhibition of human COLO-684 cell growth in a cell viability assay.
# CP66-MEL = type: functional, cell-based;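 further: growth inhibition of CP66-MEL cells determined in a cell viability assay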
# Description: SANGER: Inhibition of human CP66-MEL cell growth in a cell viability assay.
# KALS-1 = type: functional, cell-based
# Description: SANGER: Inhibition of human KALS-1 cell growth in a cell viability assay.
# NCI-H1648 = type: functional, cell-based
# Description: SANGER: Inhibition of human NCI-H1648 cell growth in a cell viability assay.
structure (smiles),measurement,setting,value
CC(=O)c1c(C)c2cnc(Nc3ccc(N4CCNCC4)cn3)nc2n(C2CCCC2)c1=O [PALBOCICLIB],IC50,COLO-824,> 4 µM
same,IC50,CTV-1,2.53 µM
same,IC50,CW-2,> 4 µM
same,IC50,D283 Med,2.72 µM
same,IC50,DB,1.07 µM
same,IC50,DEL,1.7 µM
same,IC50,GAK,> 4 µM
same,IC50,GI-ME-N,> 4 µM
same,IC50,HEL,1.29 µM
same,IC50,HH,0.599 µM
same,IC50,KINGS-1,> 4 µM
same,IC50,KLE,> 4 µM
same,IC50,KNS-42,> 4 µM
same,IC50,KP-N-YS,3.62 µM
same,IC50,KU812 cell line,1.89 µM
same,IC50,KURAMOCHI,> 4 µM
same,IC50,LC-2-ad,> 4 µM
same,IC50,LOX IMVI,1.91 µM
same,IC50,LU-139,> 4 µM
same,IC50,Lu-65,> 4 µM
same,IC50,MEG-01,> 4 µM
same,IC50,MFM-223,> 4 µM
same,IC50,MN-60,2.31 µM
same,IC50,MPP-89,> 4 µM
same,IC50,MS-1,> 4 µM
same,IC50,MSTO-211H,1.7 µM
same,IC50,MZ1-PC,> 4 µM
same,IC50,Mo,> 4 µM
same,IC50,NB10,0.599 µM
same,IC50,NB5,> 4 µM
same,IC50,NCI-H1092,> 4 µM
same,IC50,NCI-H1770,0.941 µM
same,IC50,NCI-H226,> 4 µM
same,IC50,NCI-H23,> 4 µM
same,IC50,SNU1,1.16 µM
same,IC50,NEC8,> 4 µM
same,IC50,NH-12,> 4 µM
same,IC50,NOS-1,> 4 µM
same,IC50,NTERA-2-cl-D1,> 4 µM
same,IC50,OCUB-M,> 4 µM
same,IC50,RH-1,> 4 µM
same,IC50,SCC-15,> 4 µM
same,IC50,SNB-75,> 4 µM
same,IC50,SW684,> 4 µM
same,IC50,SW 954,0.929 µM
same,IC50,SW982,> 4 µM
same,IC50,TE-1,> 4 µM
same,IC50,8-MG-BA,> 4 µM
same,IC50,ALL-PO,> 4 µM
same,IC50,AM-38,> 4 µM
same,IC50,TE-11,1.05 µM
same,IC50,TE-12,> 4 µM
same,IC50,TE-9,> 4 µM
same,IC50,TK-10,3.2 µM
same,IC50,U-266,> 4 µM
same,IC50,U-87 MG,> 4 µM
same,IC50,UACC-257,> 4 µM
same,IC50,no-11,> 4 µM
same,IC50,CAS-1,> 4 µM
same,IC50,CGTH-W-1,1.17 µM
same,IC50,COLO-684,> 4 µM
CCCS(=O)(=O)Nc1ccc(F)c(C(=O)c2c[nH]c3ncc(Cl)cc23)c1F [PLX-4720],IC50,COLO-824,> 10 µM
same,IC50,CP66-MEL,4.16 µM
same,IC50,CTV-1,> 10 µM
same,IC50,CW-2,> 10 µM
same,IC50,D283 Med,> 10 µM
same,IC50,DB,> 10 µM
same,IC50,DEL,> 10 µM
same,IC50,GAK,> 10 µM
same,IC50,GI-ME-N,> 10 µM
same,IC50,HEL,> 10 µM
same,IC50,HH,> 10 µM
same,IC50,KALS-1,> 10 µM
same,IC50,KINGS-1,> 10 µM
same,IC50,KLE,> 10 µM
same,IC50,KNS-42,> 10 µM
same,IC50,KP-N-YS,> 10 µM
same,IC50,KU812 cell line,> 10 µM
same,IC50,KURAMOCHI,> 10 µM
same,IC50,LC-2-ad,> 10 µM
same,IC50,LOX IMVI,> 10 µM
same,IC50,LU-139,> 10 µM
same,IC50,Lu-65,> 10 µM
same,IC50,MEG-01,> 10 µM
same,IC50,MFM-223,> 10 µM
same,IC50,MN-60,> 10 µM
same,IC50,MPP-89,> 10 µM
same,IC50,MS-1,> 10 µM
same,IC50,MSTO-211H,> 10 µM
same,IC50,MZ1-PC,> 10 µM
same,IC50,Mo,> 10 µM
same,IC50,NB10,> 10 µM
same,IC50,NB5,> 10 µM
same,IC50,NCI-H1092,> 10 µM
same,IC50,NCI-H1648,> 10 µM
same,IC50,NCI-H1770,> 10 µM
same,IC50,NCI-H226,> 10 µM
same,IC50,NCI-H23,> 10 µM
same,IC50,SNU1,> 10 µM
same,IC50,NEC8,> 10 µM
same,IC50,NH-12,> 10 µM
same,IC50,NOS-1,> 10 µM
same,IC50,NTERA-2-cl-D1,> 10 µM
same,IC50,OCUB-M,> 10 µM
same,IC50,RH-1,> 10 µM
same,IC50,SCC-15,> 10 µM
same,IC50,SNB-75,> 10 µM
same,IC50,SW684,> 10 µM
same,IC50,SW 954,> 10 µM
same,IC50,SW982,8.42 µM
same,IC50,TE-1,> 10 µM
same,IC50,8-MG-BA,6.18 µM
same,IC50,ALL-PO,> 10 µM
same,IC50,AM-38,> 10 µM
same,IC50,TE-11,> 10 µM
same,IC50,TE-12,> 10 µM
same,IC50,TE-9,> 10 µM
same,IC50,TK-10,> 10 µM
same,IC50,U-266,> 10 µM
same,IC50,U-87 MG,> 10 µM
same,IC50,UACC-257,> 10 µM
same,IC50,no-11,> 10 µM
same,IC50,CAS-1,> 10 µM
same,IC50,CGTH-W-1,> 10 µM
same,IC50,COLO-684,> 10 µM
